In brackets after ≈: the same amount, converted by molar mass.

The conditions of the series: buffer; pH 7.4; 200.0 µM.
As usually defined, the kinetic solubility is solubility judged after dilution from a stock solution rather than from solid. Consider `O=C1ON=C(c2ccc([N+](=O)[O-])cc2)/C1=C/c1ccccc1O`, for which the solubility (kinetic) is greater than 46.5 µg/mL.

Compound `c1cncc(-c2noc(-c3ccc4ccccc4c3)n2)c1` returned a kinetic solubility of less than 0.2 µg/mL.

The compound `C[N+](C)(C)c1ccccc1.[I-]` registered a kinetic solubility greater than 39.5 µg/mL.

For the compound `CC(=O)Cn1c(CN2CCCCC2)nc2ccccc2c1=O`, the kinetic solubility is greater than 44.9 µg/mL.

In turn, `O=C(Nc1ccc(NC(=O)c2ccco2)cc1)c1ccco1` came in with a solubility (kinetic) of 2.5 µg/mL (≈ 8.44 µM).

Take `Cc1cc(Br)c(NC(=O)COC(=O)c2ccc[n+]([O-])c2)c(Br)c1`: the solubility (kinetic) was greater than 66.6 µg/mL.

For `Cc1nc(Cl)c(N=Cc2cccc([N+](=O)[O-])c2)c(Cl)n1`, the kinetic solubility is greater than 46.7 µg/mL.

On to `CCC1(c2ccc(Cl)cc2)NC(=O)N(CC(=O)NC2(C#N)CCCCC2)C1=O` (configuration not stated), for which the solubility (kinetic) was greater than 60.4 µg/mL.

`O=C(NCC(c1ccco1)N1CCOCC1)c1cccc(Cl)c1` (configuration not stated) returned a kinetic solubility greater than 50.2 µg/mL.

As to `COc1ccc(C(=O)OCC(=O)NC2CCCC2)c(OC)c1`, the kinetic solubility amounted to 44.8 µg/mL (≈ 146 µM).

The compound `O=C(O)CC[N+](=O)[O-]` came in with a solubility (kinetic) greater than 17.9 µg/mL.

In turn, `COc1ccccc1C(=O)N1CCC(N2CCN(c3ccccc3)CC2)CC1` showed a kinetic solubility of 41.5 µg/mL (≈ 109 µM).

Compound `O=C(CN1C(=O)NC2(CCCCCCC2)C1=O)NCc1ccc(Cl)cc1` came in with a kinetic solubility of 9.9 µg/mL (≈ 26.2 µM).

For the compound `COc1ccc(CNC(=O)c2ccc[nH]2)cc1`, the solubility (kinetic) was greater than 34.5 µg/mL.

The compound `C=CCN(c1ccccc1)S(=O)(=O)c1cccc2cccnc12` showed a solubility (kinetic) of 34.9 µg/mL (≈ 108 µM).

With `COc1ccccc1C(=O)C1CCCN(C(=O)C2CCCC2)C1` (configuration not stated), the solubility (kinetic) is greater than 47.3 µg/mL.

In the case of `Cl.O=C(NC1CCCCC1)N1CCNCC1`, the solubility (kinetic) is greater than 37.2 µg/mL.

For `NC1=NC(=O)/C(=C/c2ccc(OCC(=O)O)cc2)S1`, the solubility (kinetic) was greater than 41.7 µg/mL.

`O=C(NC1CCCC1)c1c(O)nc2sccn2c1=O` showed a kinetic solubility greater than 41.9 µg/mL.

In the case of `O=C(Nc1ccc(F)cc1)Nc1sccc1-c1nc2ccccc2s1`, the solubility (kinetic) was determined as 1.1 µg/mL (≈ 2.98 µM).

On to `CCC1CCCCN1C(=O)c1cc(S(=O)(=O)N2CCOCC2)ccc1C` (configuration not stated), for which the kinetic solubility is greater than 57.1 µg/mL.

The compound `CC(=O)Nc1ccc(C23CC4CC(CC(C4)C2)C3)cc1` came in with a kinetic solubility of 0.8 µg/mL (≈ 2.97 µM).

For `CN(C)C1(CNC(=O)Cc2ccccc2F)CCCCC1`, the solubility (kinetic) is 42.2 µg/mL (≈ 144 µM).

The compound `O=C1CSC(c2ccc([N+](=O)[O-])cc2)N1Cc1ccccc1` (configuration not stated) came in with a kinetic solubility of 32.5 µg/mL (≈ 103 µM).

Compound `CCOC(=O)c1sc(-c2ccccn2)nc1C` yielded a solubility (kinetic) of 23.4 µg/mL (≈ 94.2 µM).

Compound `O=[N+]([O-])c1ccc(Oc2ccc(S(=O)(=O)N3CCOCC3)cc2)cc1` displayed a solubility (kinetic) of 18.1 µg/mL (≈ 49.7 µM).

`CCOC(=O)C1=C(O)/C(=C/c2cc(C)n(-c3ccccc3)c2C)N=C1C`: the kinetic solubility came out at 30.7 µg/mL (≈ 87.6 µM).

The compound `O=C(CCc1ccc(S(=O)(=O)N2CCOCC2)cc1)Nc1ccccc1F` had a kinetic solubility greater than 58.9 µg/mL.

In turn, `O=C(c1nc(SCc2ccc([N+](=O)[O-])cc2)n2ccccc12)C(F)(F)F` displayed a kinetic solubility of less than 0.3 µg/mL.

As to `O=C(CSc1cccc[n+]1[O-])c1cccs1`, the kinetic solubility was 28 µg/mL (≈ 111 µM).

`CC(=O)N(CN1C(=O)C2C3C=CC(C3)C2C1=O)c1cccc(Cl)c1` (configuration not stated) showed a solubility (kinetic) of 50.4 µg/mL (≈ 146 µM).

As for `CC(C)(C)NC(=O)N1c2ccccc2Sc2ccccc21`, the kinetic solubility was 23 µg/mL (≈ 77.1 µM).

`CCOc1ccc(C(=O)OC2CCCN(C)C2)cc1.Cl` (configuration not stated): the solubility (kinetic) was greater than 45 µg/mL.

In turn, `Cc1ccc2nc(N3CCN(C)CC3)c(C=O)c(=O)n2c1` gave a solubility (kinetic) of 41.3 µg/mL (≈ 144 µM).

`Cc1cc2ccccn2c1C(=O)c1ccc(F)cc1` had a kinetic solubility of 0.9 µg/mL (≈ 3.55 µM). This solubility kinetic lies about 46-fold lower than the previous one.

`Cl.NCCCCCC(=O)Nc1ccncc1` showed a solubility (kinetic) greater than 36.6 µg/mL.

For `CCOC(=O)C(Cc1ccc(Cl)cc1Cl)c1ccno1` (configuration not stated), the kinetic solubility turned out to be 11.7 µg/mL (≈ 37.2 µM).

Turning to `Cn1c(CNC(=O)C2CCCCC2)cc2cc(Cl)ccc21`, the solubility (kinetic) was less than 0.3 µg/mL.

For `COc1ccc(C)cc1NC(=O)CSc1cccc[n+]1[O-]`, the kinetic solubility was greater than 45.7 µg/mL.

In turn, `CCc1ccc(CNCc2cccs2)cc1.Cl` had a kinetic solubility of 23.9 µg/mL.

`Nc1ccc(CCNc2ncnc3c2ncn3[C@@H]2O[C@H](CO)[C@@H](O)[C@H]2O)cc1` displayed a kinetic solubility greater than 58 µg/mL.

Turning to `O=C(COC(=O)c1cccc([N+](=O)[O-])c1)Nc1ncc(Br)s1`, the solubility (kinetic) amounted to 3.5 µg/mL (≈ 9.06 µM).

`Cc1ccc(C(=O)OCC(=O)NC2CCS(=O)(=O)C2)c(C)c1` (configuration not stated): the solubility (kinetic) was greater than 48.8 µg/mL.

For the compound `Cc1ccsc1C(=O)OCC(=O)NC1CCS(=O)(=O)C1` (configuration not stated), the solubility (kinetic) is greater than 47.6 µg/mL.

The compound `C=CCOC(=O)C1=C(C)NC(=O)NC1c1ccc(O)cc1` (configuration not stated) registered a kinetic solubility greater than 43.2 µg/mL.

`CCN(CC(=O)Nc1ccc(S(=O)(=O)N2CCCC2)cc1)CC(=O)Nc1ccccc1C(F)(F)F` registered a kinetic solubility of 21.2 µg/mL (≈ 41.4 µM).

`Cc1ccc(S(=O)(=O)c2c(C)cc(C)[nH]c2=O)cc1` returned a solubility (kinetic) greater than 41.6 µg/mL.

In turn, `COC(=O)[C@H](C)NC(=O)N1CCC(Cc2ccccc2)CC1` yielded a solubility (kinetic) greater than 45.7 µg/mL.

In the case of `O=C(c1cc(C(=O)N2CCCC2)cc([N+](=O)[O-])c1)N1CCCC1`, the kinetic solubility was greater than 47.6 µg/mL.

Consider `Cc1ccc(Nc2ccc([N+](=O)[O-])ccc2=O)cc1`, for which the solubility (kinetic) is less than 0.3 µg/mL.

In turn, `CCOC(=O)C(=O)Nc1ccc(OCc2ccccc2)cc1` returned a solubility (kinetic) of 30.2 µg/mL (≈ 101 µM).

On to `CC(=O)c1cc(Cl)ccc1OCC(=O)NC1CCCC1`, for which the solubility (kinetic) was greater than 44.4 µg/mL.

The values are drawn from PubChem BioAssay AID1996.
